System: monocrotaline induced hypertension in rats
Test: Monocrotaline-induced hypertension rat model, tail-cuff blood pressure and pulse
Format: in vivo, Sprague-Dawley rats
Description: Animal Care and Handeling. Sprague-Dawley rats (Charles River Laboratories, Wilmington, Mass.) 60 days old and weighing 140-160 g were utilized. Animals were kept in standard autoclaved rodent cages with ad libitum food (Harlan Teklad Irradiated Rodent Diet) and autoclaved water. The rats were housed on Harlan Tek-chip pelleted paper in static micro isolators maintained at 22° C., 60% relative humidity, and under a 12 h light cycle. The animals were kept at the facility for 5 days to get accustomed to the environment after the arrival from the vendor. All animal care procedures complied with the recommendations of the Guide for Care and Use of Laboratory Animals with respect to restraint, husbandry, surgical procedures, feed and fluid regulation, and veterinary care. Induction of hypertension and the treatment. Rats were injected subcutaneously with monocrotaline (MCT, 60 mg kg^−1) and monitored for 12 days for the development of pulmonary inflammation and initiation of the pulmonary hypertensive response. After the incubation period, Tristenonol aglycone (Cmp. 15 of the present invention) was administrated orally to the animals in three different doses (120, 90, and 60 mg kg^−1 body weights). Blood pressure (BP; Systolic and Diastolic) and heart beats were recorded three times a day 24, 48, and 72 h after administration of compound BP.
Test Articles and Animal Groups. Three doses of Tristenonol aglycone (Cmp 15 of the present invention) were tested. The animals were randomized before and grouped in to 10 animals per group. For positive controls used the commercially available drug Atenol® was used.
Rats were sorted into six groups of ten and treated according to the protocol in Table 1. […] All remaining groups were administered monocrotaline. […] Groups 3, 4 and 5 received Tristenonol aglycone (Cmp 15 of the present invention) at […], 90, and 60 mg respectively per kg body weight 12 days after induction of hypertension with monocrotaline. Positive Control Group 6 was given the commercial drug Atenol® at 120 mg kg^−1.
Systolic blood pressure, diastolic blood pressure and heart beats were recorded in the morning, afternoon and evening three times, 24, 48, and 72 h after Tristenonol aglycone (Cmp 15) and Atenol® administration.
Protocol for the Measurement of the Blood Pressure. A tail-cuff was placed on the tail to occlude the blood flow. Upon deflation a non-invasive blood pressure sensors, placed distal to the occlusion cuff, was utilized to monitor the blood pressure. Volume Pressure Recording. The volume pressure recording sensor utilizes a specially designed differential pressure transducer to non-invasively measure the blood volume in the tail. Volume pressure recording actually measured six blood pressure parameters simultaneously: systolic blood pressure, diastolic blood pressure, mean blood pressure, heart pulse rate, tail blood volume and tail blood flow. […] In addition, volume pressure recording was not dependent on the skin pigmentation of the animal. Dark-skinned animals have no negative effect on volume pressure recording measurements. Special attention was afforded to the length of the occlusion cuff with volume pressure recording in order to derive the most accurate blood pressure readings. Endpoint Measurements. Each animal was sacrificed when the animal reached the predetermined endpoint of being moribund or when the animals remained […]. The animals were observed and if found incapable of eating or drinking or if their body temperature were too low to sustain life, the animals were sacrificed. Treatment efficacy is determined from the reduction in systolic blood pressure, diastolic blood pressure and heart beats of the animal compared to the untreated control group. Toxicity and Necropsy Examination. Animals were weighed daily throughout the experiment. […]

[1] = 120 mg kg^−1 body weight, rats with monocrotaline
[2] = monocrotaline 60 mg kg^−1 subcutaneously

Row | Compound | decrease in Diastolic blood pressure compared to untreated control [1] | reduction in pulse rate compared to untreated controls [1] | reduction of mean Systolic blood pressure compared to untreated animals (120 mg kg^−1 body weight, rats with monocrotaline, 24-72 h) [%] | increase in Diastolic blood pressure in injected rats [2] | increase in Systolic blood pressure in injected rats [2] | increase in pulse rate in injected animals [2]
1 | CC(C)NCC(O)COc1ccc(CC(N)=O)cc1 (stereo not drawn) [Atenol®] | 24-25% | 35-36.38% | 28 |  |  | 
2 | C[C@H]1C(=O)O[C@@H]2CCN3CC=C(COC(=O)[C@](C)(O)[C@]1(C)O)[C@H]23 [Monocrotaline, monocrotaline] |  |  |  | 49-52% | 40-45% | 60-70%

From patent US20100152285A1, “Flavononol Renin Inhibitor Compounds and Methods of Use Thereof” (HerbalScience Group LLC, priority 2008, published 2010)
